Counter-ions that a name gives are not always drawn.
Molecule CCNC(=O)c1ccnc(OCCCN2CCN(c3cccc4sccc34)CC2)c1 (as salt: hydrochloride) [Example 32] has a melting point of 140 to 141.5 °C.
Work on CN(C)C(=O)Nc1cc(OCCCN2CCN(c3cccc4sccc34)CC2)n(C)n1.Cl yielded a melting point of 174 to 176.5 °C.
Work on CCNC(=O)c1cc(OCCCN2CCN(c3cccc4sccc34)CC2)n(C)n1 (as salt: hydrochloride) [Example 62] yielded a melting point of 210.5 to 214.5 °C.
With COc1cc(N2CCN(C(C)=O)CC2)cc(C)c1OCCCN1CCN(c2cccc3sccc23)CC1 (as salt: hydrochloride) [Example 1083] the melting point was 257 to 261 °C (dec.).
For COc1cc(N2CCCC2)cc(C)c1OCCCN1CCN(c2cccc3sccc23)CC1 (as salt: hydrochloride) [Example 1076], the melting point was 246.5 to 249 °C (dec.).
c1cc(N2CCN(CCCCOc3ccncc3)CC2)c2ccsc2c1 (as salt: hydrochloride) [Example 80] showed a melting point of 183 to 185 °C.
Cl.c1cc(N2CCN(CCCOc3ccc4c(c3)NCCO4)CC2)c2ccsc2c1 gave a melting point of 207.9 to 208.8 °C.
With CCN(CC)CCNC(=O)c1ccc(OCCCN2CCN(c3cccc4sccc34)CC2)cc1 (as salt: hydrochloride) [Example 160] the melting point was 229.5 to 232.5 °C.
For CC(=O)Nc1ccc(OCCCN2CCN(c3cccc4sccc34)CC2)cc1 (as salt: hydrochloride) [Example 343], the melting point was 283 to 285 °C.
For COC(=O)c1cc(OCCCN2CCN(c3cccc4sccc34)CC2)n(C)n1 [Example 1, methyl 5-[3-(4-benzo[b]thiophen-4-yl-piperazin-1-yl)propoxy]-1-methyl-1H-pyrazole-3-carboxylate], the melting point was 109 to 110.5 °C.
For CN1CCOc2cc(OCCCN3CCN(c4cccc5sccc45)CC3)ccc21.Cl, the melting point was 248.1 to 249.6 °C.
In the case of O=C1Nc2cc(OCCCCN3CCN(c4cccc5sccc45)CC3)ccc2CO1 (as salt: hydrochloride) [Example 133], the melting point was 253 to 258 °C (dec.).
With CN(C)CCc1ccc(OCCCN2CCN(c3cccc4sccc34)CC2)cc1 (as salt: hydrochloride) [Example 382] the melting point was 238.5 °C (dec.).
C=CCn1nc(C(=O)NC)cc1OCCCN1CCN(c2cccc3sccc23)CC1 [Example 3098, 1-allyl-5-[3-(4-benzo[b]thiophen-4-yl-piperazin-1-yl)propoxy]-1H-pyrazole-3-carboxylic acid methylamide] gave a melting point of 138.5 to 140.5 °C.
CCS(=O)(=O)Nc1ccc(OCCCN2CCN(c3cccc4sccc34)CC2)cc1 (as salt: hydrochloride) [Example 345] showed a melting point of 174 to 176 °C.
In the case of COc1cc(NC=O)cc(C)c1OCCCN1CCN(c2cccc3sccc23)CC1.Cl, the melting point was 247.5 to 253 °C (dec.).
CC(=O)N1CCC(OCCCN2CCN(c3cccc4sccc34)CC2)CC1.Cl showed a melting point of 208 to 210 °C.
For COc1cc(N2CCCC2=O)cc(CO)c1OCCCN1CCN(c2cccc3sccc23)CC1 (as salt: hydrochloride) [Example 359], the melting point was 144 to 145 °C.
Molecule CN(C)C(=O)c1csc(OCCCN2CCN(c3cccc4sccc34)CC2)n1 (as salt: hydrochloride) [Example 1113] has a melting point of 178 to 182 °C.
In the case of COc1cc(N2CCCCC2)cc(C)c1OCCCN1CCN(c2cccc3sccc23)CC1 (as salt: hydrochloride) [Example 1089], the melting point was 248 to 251 °C (dec.).
In the case of Cn1nc(C(=O)O)cc1OCCCN1CCN(c2cccc3sccc23)CC1 [Example 2, 5-[3-(4-benzo[b]thiophen-4-yl-piperazin-1-yl)propoxy]-1-methyl-1H-pyrazole-3-carboxylic acid], the melting point was 114.5 to 118 °C.
For CN1CNc2ccc(OCCCN3CCN(c4cccc5sccc45)CC3)cc2C1.Cl, the melting point was 203.1 to 204.4 °C.
Work on CNC(=O)c1cc(OCCCN2CCN(c3cccc4sccc34)CC2)ncn1 (as salt: hydrochloride) [Example 58] yielded a melting point of 205 to 209.5 °C.
In the case of COc1cc(N2CCOC2=O)cc(CO)c1OCCCN1CCN(c2cccc3sccc23)CC1 (as salt: hydrochloride) [Example 1071], the melting point was 224 to 226.5 °C (dec.).
Work on CNC(=O)c1ccc(OC)c(OCCCN2CCN(c3cccc4sccc34)CC2)c1 (as salt: hydrochloride) [Example 281] yielded a melting point of 163.5 to 165 °C.
With Cl.c1cc(N2CCN(CCCOc3ccc4c(c3)CCN4)CC2)c2ccsc2c1 the melting point was 222.4 to 223.9 °C.
With Cn1cnc2ccc(OCCCN3CCN(c4cccc5sccc45)CC3)cc2c1=O (as salt: hydrochloride) [Example 95] the melting point was 252.9 to 254.3 °C.
In the case of CCNC(=O)c1ccc(OCCCN2CCN(c3cccc4sccc34)CC2)nc1 (as salt: hydrochloride) [Example 26], the melting point was 201.5 to 207.5 °C.
In the case of COC(=O)N1CCN(c2cc(C=O)c(OCCCN3CCN(c4cccc5sccc45)CC3)c(OC)c2)CC1 (as salt: hydrochloride) [Example 1086], the melting point was 225 °C (dec.).
For COc1cc(N2CCOC2=O)cc(C)c1OCCCN1CCN(c2cccc3sccc23)CC1 (as salt: hydrochloride) [Example 358], the melting point was 247.5 to 251 °C (dec.).
With CCN(C)Cc1ccc(OCCCN2CCN(c3cccc4sccc34)CC2)c(C)c1 (as salt: hydrochloride) [Example 307] the melting point was 256.5 °C (dec.).
With CN(C)Cc1ccc(OCCCN2CCN(c3cccc4sccc34)CC2)c(Cl)c1 (as salt: hydrochloride) [Example 303] the melting point was 259 °C (dec.).
With CN1CCN(Cc2ccc(OCCCN3CCN(c4cccc5sccc45)CC3)cc2)CC1 (as salt: hydrochloride) [Example 314] the melting point was 261.5 °C (dec.).
CCNC(=O)c1csc(OCCCN2CCN(c3cccc4sccc34)CC2)n1 (as salt: hydrochloride) [Example 73] showed a melting point of 151 to 153.5 °C.
For COc1cc(N2CCN(C(C)=O)CC2=O)cc(C)c1OCCCN1CCN(c2cccc3sccc23)CC1 (as salt: hydrochloride) [Example 1079], the melting point was 218 to 221.5 °C.
With CCNCc1ccc(OCCCN2CCN(c3cccc4sccc34)CC2)cc1 (as salt: hydrochloride) [Example 286] the melting point was 228 to 241 °C (dec.).
In the case of CN(C)c1cc(OCCCCN2CCN(c3cccc4sccc34)CC2)n(C)n1 (as salt: hydrochloride) [Example 1138], the melting point was 156.5 to 158.5 °C.
For CN(C)C(=O)N1CCC(OCCCN2CCN(c3cccc4sccc34)CC2)CC1 (as salt: hydrochloride) [Example 1110], the melting point was 202 to 205 °C.
In the case of CCN(CC)CCc1ccc(OCCCN2CCN(c3cccc4sccc34)CC2)cc1 (as salt: hydrochloride) [Example 368], the melting point was 224 to 232 °C (dec.).
Molecule COc1cc(N)cc(C)c1OCCCN1CCN(c2cccc3sccc23)CC1 [Example 9, 4-[3-(4-benzo[b]thiophen-4-yl-piperazin-1-yl)-propoxy]-3-methoxy-5-methylaniline] has a melting point of 155 to 158 °C.
For COC(=O)N1CCN(c2cc(C)c(OCCCN3CCN(c4cccc5sccc45)CC3)c(OC)c2)C(=O)C1 (as salt: hydrochloride) [Example 1080], the melting point was 223 to 228 °C.
For CCNC(=O)c1cc(OCCCN2CCN(c3cccc4sccc34)CC2)no1 (as salt: hydrochloride) [Example 72], the melting point was 219.5 to 222.5 °C (dec.).
With CN(C)C(=O)Nc1cc(OCCCCN2CCN(c3cccc4sccc34)CC2)n(C)n1.Cl the melting point was 186 to 187.5 °C.
In the case of COc1cc(NC(=O)CN)cc(C)c1OCCCN1CCN(c2cccc3sccc23)CC1 (as salt: hydrochloride) [Example 1060], the melting point was 268 °C (dec.).
For COc1cc(NC=O)cc(C)c1OCCCN1CCN(c2cccc3sccc23)CC1 (as salt: hydrochloride) [Example 354], the melting point was 247.5 to 253 °C (dec.).
Cc1ccc(OCCCN2CCN(c3cccc4sccc34)CC2)cn1 (as salt: hydrochloride) [Example 40] showed a melting point of 234 to 236 °C.
Work on COc1cc(N2CCN(C(C)=O)CC2)cc(CO)c1OCCCN1CCN(c2cccc3sccc23)CC1 (as salt: hydrochloride) [Example 1084] yielded a melting point of 217.5 to 221 °C.
CCS(=O)(=O)Nc1cc(C)c(OCCCN2CCN(c3cccc4sccc34)CC2)c(OC)c1.Cl gave a melting point of 235.5 to 237.5 °C.

From patent publication US8071600B2, “Derivatives of 4-piperazin-1-yl-4-benzo[B]thiophene suitable for the treatment of CNS disorders” (Otsuka Pharmaceutical Co., Ltd., priority 2005, dated 2011)
